According to patent US10407465B2, “Peptides enhancing neuronal outgrowth and application thereof” (Schweitzer Biotech Company Ltd., priority 2014, dated 2019):
Where a name gives a salt, the structure may show the parent alone. No end group written: not given here.

What was measured:
[1] = tested on: embryonic hippocampal primary neurons; test: Neuronal outgrowth assay with immunocytochemistry (anti-Tau, anti-MAP2, DAPI); type: cell-based, Sprague-Dawley rats; details: for lengths of the first and second order axon branches: p<0.01 or p<0.05; for axon outgrowth: L-form peptide 10^−9 M, treatment at 3 DIV for 3 days, vs PBS negative control
Experimental: In order to culture embryonic hippocampal primary neurons, pregnant Sprague-Dawley rats were purchased from the National Laboratory Center in Taiwan (Taipei, Taiwan). The hippocampal tissue from the embryos of the Sprague-Dawley rats (embryonic day 19, E19) was dissociated with enzyme and plated onto poly-L-lysine-coated coverslips with a minimal essential medium containing 5% calf serum, 5% horse serum, and 50 ng/mL insulin-transferrin-selenite (Sigma-Aldrich, St. Louis, Mo., USA). After plating, the medium was replaced with 2% of B27-neurobasal medium (Invitrogen, Carlsbad, Calif., USA) containing 0.5 mM glutamine and […]. Embryonic hippocampal primary neurons were incubated at 37° C., 5% CO2 for further experimental treatment.
Primary hippocampal neuron cultures at 3 days in vitro (at DIV3) were treated with 10^−9 M, 10^−12M, 10^−15 M C5 peptide (L-form), 10^−9 M, 10^−12M, 10^−15 M C6 peptide (L-form), 10^−9 M P1 peptide (L-form), 10^−9 M P2 peptide (L-form), 10^−9 M P3 peptide (L-form), 10^−9 M P4 peptide (L-form), 10^−9 M P5 peptide (L-form), 10^−9 M P6 peptide (L-form), 10^−9 M C5 peptide (D-form), and 10^−12 C6 peptide (D-form), respectively, for 3 days, followed by immunocytochemistry. Embryonic hippocampal primary neurons of negative control were treated with PBS. Each treatment condition was run in 3 replicates.
Cultured hippocampal neurons were fixed with 4% paraformaldehyde and permeablized with 0.1% Triton X-100 at room temperature (RT). Cultures were then incubated in the primary rabbit anti-Tau antibody (a selective marker for axons, Millipore, Mass., USA) and the primary mouse anti-MAP2 antibody (microtubule-associated protein-2, which is a selective marker for dendrites, Millipore) for 1 hour at RT. After wash, cells were incubated with Alexa Fluor® 488 goat anti-rabbit secondary antibody (green fluorescence, Abcam Plc., UK) and Alexa Fluor® 594 goat anti-mouse secondary antibody (red fluorescence, Abcam Plc.) for 1 hour at RT. Then, nuclei were stained with 4′,6-diamidino-2-phenylindole (DAPI, blue fluorescence, Vector Laboratories, USA). After that, coverslips were mounted on the cells, and images were obtained by using an Axio Observer D1 microscope (Zeiss, Jena, Germany) and analyzed by ImageJ software (Inage Processing and Analysis in Java, National Institutes of Health, USA). Neuronal process longer than 10 μm is defined as a neurite.
An axon extending from the cell body of a neuron is defined as a first order axon branch; an axon extending from a first order axon branch is defined as a second order axon branch, and an axon extending from a second order axon branch is defined as a third order axon branch, et cetera (FIG. 3A). Only axons longer than 10 μm are counted.

[2] = tested on: Sco-induced amnesia animal model; test: Water maze learning, scopolamine-induced memory impairment; type: in vivo, Sprague-Dawley rats; details: scopolamine 1.5 mg/kg/day i.p. alone; vs negative control; P<0.01
Experimental: (§1) A plastic circular pool 183 cm in diameter was filled with water (25±2° C.). A circular platform was placed at a specific location from the edge of the pool and submerged below the water surface. Water was made cloudy by adding toxic-free dye. Distinctive visual cues were set on the wall. For spatial learning, animals were subjected to 3 trials per day, with one trial early in the morning, one trial at noon, and another in the late afternoon. The training procedure lasted 4 days, and a total of 12 trials were given. The rats were positioned at different starting points spaced equally around the perimeter of the pool in random order. They had 60 seconds to swim in the pool. If a rat could not find the platform, it was guided to the platform and was allowed to remain there for 20 seconds. The time each animal took to reach the platform was recorded as the escape latency. A probe trial of 60 seconds was given on Day 5 to test their memory retention. The rats were placed in the pool with the platform removed, and the time they spent in each quadrant (Quadrants 1, 2, 3, and 4) was recorded. The longer a rat stayed in the target quadrant (quadrant 4), the better memory the rat had. At the end of the experiment, the rats were subjected to visible platform learning. […] The time the rats found the platform was recorded. […]

[3] = tested on: Sco-induced amnesia animal model; test: Step-down passive avoidance test, scopolamine-induced memory deficits; type: in vivo, Sprague-Dawley rats; details: scopolamine 1.5 mg/kg/day alone; 1 day after footshock; vs control
Experimental: Animals were familiar to the instrument 24 hours before training. Next day rats placed on the elevated platform situated in the center of the floor of the passive avoidance test box and the latency to stepping down recorded. On the third day of the experiment immediately after stepping down, animals received mild electric shock (3V, 3 seconds duration, D.C.) through the grid floor and then returned to their home cages. On the following day (as 24 hours retention interval) rats placed on the platform again while no electric shock was given to them. Latency to step down recorded. If the rat remained on the platform for the 5 minutes, it assigned a maximum score of 300 seconds.
Rats were randomly divided into negative control group, Scopolamine only group, (C5+Sco) group and (C6+Sco) group, and rats in the four groups were injected with vehicle (negative control group and scopolamine only group), C5 peptide (54 μg/kg/day, C5+Sco group), and C6 peptide (5.4 μg/kg/day, C6+Sco group), respectively, for 14 consecutive days. After that, rats in the 4 groups were intraperitoneally injected with vehicle (negative control group), vehicle and scopolamine (1.5 mg/kg/day)(scopolamine only group), C5 peptide (54 μg/kg/day) and scopolamine (1.5 mg/kg/day) (C5+Sco group), and C6 peptide (5.4 μg/kg/day) and scopolamine (1.5 mg/kg/day) (C6+Sco group), respectively, for 7 consecutive days. […]

[4] = tested on: Sco-induced amnesia animal model; test: Novel object recognition learning, scopolamine-induced memory deficits; type: in vivo, Sprague-Dawley rats; details: scopolamine 1.5 mg/kg/day alone; vs time on left object; P>0.05
Experimental: During familiarization, rats were allowed to explore 2 identical objects in an open field box (90×70×60 cm) for 5 min. The criteria used for exploration were a distance less than 1.5 cm between the rat and the object or direct contact with the object. During the retention test given 3 hours and 24 hours later, the rats were returned to the same box, but one of the familiar objects was replaced with a novel object of approximately the same size. The time that each rat spent exploring the 2 objects during a 5-min period was recorded. The rats placed in the open field box without any objects for 5 min were assigned to the non-trained group.
Both C5 peptide and C6 peptide ameliorate scopolamine-induced memory deficits. […] Then, behavioral experiments were conducted, and the injection program with scopolamine continued through the experimentation. The injection volume was 1 μL/g of body weight. The scopolamine injection was performed 30 minutes before behavioral experiments every morning, and the C5 peptide or C6 peptide injection was conducted once daily at 5:00 PM 1 day prior. […] Three (3) hours, 8 hours and 24 hours after, a novel object (NO) replaced the RO.

[5] = tested on: embryonic hippocampal primary neurons; test: Cell viability (MTT) assay for neurotoxicity; type: cell-based, Sprague-Dawley rats; details: 10^−3 M, 10^−6 M, 10^−9 M, 10^−12M for 24 hours from 1 DIV; p>0.05
Experimental: At the first day in vitro (1 DIV), embryonic hippocampal primary neurons were treated with 10^−3 M, 10^−6 M, 10^−9 M, 10^−12M C5 peptide or C6 peptide, respectively, for 24 hours, followed by cell viability assay.
Cell viability was evaluated by an MTT (3-(4,5-cimethylthiazol-2-yl)-2,5-diphenyl tetrazolium bromide) assay. Cells were incubated with an MTT reagent (0.5 mg/mL, Sigma-Aldrich, USA) at 37° C. for 1 hour. The MTT solution was removed, and DMSO was added to the wells shaken at room temperature for 1 hour. The amount of MTT formazan product was quantified by measuring its absorbance at 570 and 630 nm by using an ELISA plate reader (SpectraMax M2 Microplate Readers, Molecular Devices, Sunnyvale, Calif., USA).

[6] = tested on: D-Galactose induced aging model rats; test: Water maze learning, D-galactose induced aging; type: in vivo, Sprague-Dawley rats; details: D-galactose 150 mg/kg/day i.p. alone for 9 weeks
Experimental: as §1

[7] = tested on: MPTP-mouse model of Parkinson's disease; test: Rotarod performance test; type: in vivo, C57BL/6 male mice; details: MPTP 30 mg/kg i.p. alone; negative control 778.5 seconds; p<0.01
Experimental: C57BL/6 male mice at the age of 5 weeks were randomly divided into 3 groups and intraperitoneally injected with PBS (negative control), MPTP (30 mg/kg)(MPTP group), and C6 peptide (10.7 μg/kg) and MPTP (30 mg/kg)(C6+MPTP group), respectively. The injection volume was calculated based on the body weight of each mouse everyday. Mice of the C6+MPTP group were injected C6 peptide for 3 weeks prior to injection of C6 peptide and MPTP for 1 week, and then subjected to rotarod performance test.
Rotarod performance tests were conducted to measure the coordination of mice. Mice were placed on the rod and ran at 2 rpm constant speed for 2 minutes in order to adapt to the rod. After that, rod was started to accelerate to 20 rpm (within 5 minutes) and sustained for 15 minutes. The time (latency) at which each mouse fell off the rod was recorded.

Compound | lengths of the first and second order axon branches ([1]; 10^−9 M, vs negative control) | axon outgrowth [1] | also measured
NLMPQ (Petide for enhancing neuronal outgrowth) [P4 peptide] | longer | enhanced axon outgrowth | 
CN1[C@@H]2C[C@@H](OC(=O)[C@H](CO)c3ccccc3)C[C@H]1[C@@H]1O[C@@H]12 [Sco, Scopolamine hydrochloride] |  |  | escape latency in finding the hidden platform [2]: longer escape latency; stepping down (jumping error number) [3]: stepped down more; exploratory preference for the novel object (NO) [4]: no exploratory preference for the NO
NFEPQ (Petide for enhancing neuronal outgrowth) [P1 peptide] | longer | enhanced axon outgrowth | 
NIKPQ (Petide for enhancing neuronal outgrowth) [P3 peptide] | longer | enhanced axon outgrowth | 
NWLPQ (Petide for enhancing neuronal outgrowth) [P6 peptide] | longer | enhanced axon outgrowth | average number of second order axon branches ([1]; 10^−9 M, negative control 2.5, p<0.01): 4.2; lengths of the third order axon branches ([1]; 10^−9 M, vs negative control, p<0.05): significantly longer
NMYPQ (Petide for enhancing neuronal outgrowth) [P2 peptide] | longer | enhanced axon outgrowth | 
NPSPQ [C6 peptide, NPSPQ] |  |  | neurotoxic effect (cell viability, MTT) [5]: no significant neurotoxic effect
O=C[C@H](O)[C@@H](O)[C@@H](O)[C@H](O)CO [D-Galactose, D-(+)-galactose] |  |  | average escape latency in finding the hidden platform [6]: 53.06 s
NVAPQ (Petide for enhancing neuronal outgrowth) [P5 peptide] | longer | enhanced axon outgrowth | 
NAIPQ [C5 peptide, NAIPQ] |  |  | neurotoxic effect (cell viability, MTT) [5]: no significant neurotoxic effect
CN1CC=C(c2ccccc2)CC1 [MPTP, 1-methyl-4-phenyl-1,2,3,6-tetrahydropyridine] |  |  | average latency to fall [7]: 159.8 s
